Source: US20260125382A1, “COMPOUNDS FOR INHIBITING OR DEGRADING CDK2 AND/OR CDK9 AND MEDICINAL USE THEREOF” (KOREA RESEARCH INSTITUTE OF CHEMICAL TECHNOLOGY, priority 2022, published 2026)

Legend:
CDK2 = target: T1, CDK2 (Homo sapiens, UniProt P24941); assay: CDK protein degradation activity (Western blotting), CDK2; assay type: cell-based; conditions: MDA-MB-231 cells, 16 hours, Western blot
T1 construct: endogenous in cells; host or cells: MDA-MB-231
Summary of the method: (§1)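 MDA-MB-231 cells treated 16 h with compound at 100 nM, 1 μM or 10 μM, with DMSO as control. Lysates run on SDS-PAGE and immunoblotted for CDK2, CDK9 and tubulin; band levels quantified by densitometry.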

CDK9 = target: T2, CDK9 (Homo sapiens, UniProt P50750); assay: CDK protein degradation activity (Western blotting), CDK9; assay type: cell-based; conditions: MDA-MB-231 cells, 16 hours, Western blot
T2 construct: endogenous in cells; host or cells: MDA-MB-231
Summary of the method: as §1

T2 sequence (P50750 whole entry): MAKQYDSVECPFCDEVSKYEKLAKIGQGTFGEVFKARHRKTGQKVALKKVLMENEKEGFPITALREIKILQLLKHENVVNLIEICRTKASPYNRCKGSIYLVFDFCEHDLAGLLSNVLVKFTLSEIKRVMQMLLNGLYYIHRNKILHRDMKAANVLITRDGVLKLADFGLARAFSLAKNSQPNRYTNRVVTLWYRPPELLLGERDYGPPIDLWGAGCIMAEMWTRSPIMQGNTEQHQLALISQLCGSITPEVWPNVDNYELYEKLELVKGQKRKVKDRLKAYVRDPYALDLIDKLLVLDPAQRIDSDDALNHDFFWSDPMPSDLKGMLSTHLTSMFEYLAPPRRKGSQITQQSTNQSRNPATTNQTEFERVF

Compound | Enzyme degradation CDK2 (% remaining) @ 0.1 μM (CDK2) | Enzyme degradation CDK2 (% remaining) @ 1 μM (CDK2) | Enzyme degradation CDK2 (% remaining) @ 10 μM (CDK2) | Enzyme degradation CDK9 (% remaining) @ 0.1 μM (CDK9) | Enzyme degradation CDK9 (% remaining) @ 1 μM (CDK9) | Enzyme degradation CDK9 (% remaining) @ 10 μM (CDK9)
O=C1CC[C@H](n2nnc3ccc(N4CCC(N5CCN(c6ccc(Nc7ncnc8c7ncn8[C@H]7C[C@@H](NC(=O)Cc8ccccc8)C7)cc6)CC5)CC4)cc3c2=O)C(=O)N1 [Compound 334, N-((1s,3s)-3-(6-((4-(4-(1-(3-(2,6-dioxopiperidin-3-yl)-4-oxo-3,4-dihydrobenzo[d][1,2,3]triazin-6-yl)piperidin-4-yl)piperazin-1-yl)phenyl)amino)-9H-purin-9-yl)cyclobutyl)-2-phenylacetamide] | 60% | 50% | 50% | 20% | 10% | 10%
O=C1CC[C@H](N2C(=O)c3ccc(N4CCN(C5CC6(CCN(c7ccc(Nc8ncnc9c8ncn9[C@H]8C[C@@H](NC(=O)Cc9ccccc9)C8)cc7)CC6)C5)CC4)cc3C2=O)C(=O)N1 [Compound 335, N-((1s,3s)-3-(6-((4-(2-(4-(2-(2,6-dioxopiperidin-3-yl)-1,3-dioxoisoindolin-5-yl)piperazin-1-yl)-7-azaspiro[3.5]nonan-7-yl)phenyl)amino)-9H-purin-9-yl)cyclobutyl)-2-phenylacetamide] | 20% | 10% | 10% | 70% | 0% | 0%
O=C1CC[C@H](N2C(=O)c3cc(F)c(N4CCN(C5CC6(CCN(c7ccc(Nc8ncnc9c8ncn9[C@H]8C[C@@H](NC(=O)Cc9ccccc9)C8)cc7)CC6)C5)CC4)cc3C2=O)C(=O)N1 [Compound 336, N-((1s,3s)-3-(6-((4-(2-(4-(2-(2,6-dioxopiperidin-3-yl)-6-fluoro-1,3-dioxoisoindolin-5-yl)piperazin-1-yl)-7-azaspiro[3.5]nonan-7-yl)phenyl)amino)-9H-purin-9-yl)cyclobutyl)-2-phenylacetamide] | 100% | 0% | 0% | 100% | 0% | 0%
O=C1CC[C@H](n2nnc3ccc(N4CCN(C5CC6(CCN(c7ccc(Nc8ncnc9c8ncn9C8CC(NC(=O)Cc9ccccc9)C8)cc7)CC6)C5)CC4)cc3c2=O)C(=O)N1 (stereo partly drawn) [Compound 337, N-((1s,3s)-3-(6-((4-(2-(4-(3-(2,6-dioxopiperidin-3-yl)-4-oxo-3,4-dihydrobenzo[d][1,2,3]triazin-6-yl)piperazin-1-yl)-7-azaspiro[3.5]nonan-7-yl)phenyl)amino)-9H-purin-9-yl)cyclobutyl)-2-phenylacetamide] | 0/0/0% | 0/0/0% | 0/0/0% | 50% | 10% | 10%
O=C1CC[C@H](N2C(=O)c3ccc(N4CCN(CCC5CCN(c6ccc(Nc7ncnc8c7ncn8[C@H]7C[C@@H](NC(=O)Cc8ccccc8)C7)cc6)CC5)CC4)cc3C2=O)C(=O)N1 [Compound 338, N-((1s,3s)-3-(6-((4-(4-(2-(4-(2-(2,6-dioxopiperidin-3-yl)-1,3-dioxoisoindolin-5-yl)piperazin-1-yl)ethyl)piperidin-1-yl)phenyl)amino)-9H-purin-9-yl)cyclobutyl)-2-phenylacetamide] | 10% | 0% | 0% | 50% | 0% | 0%
O=C1CC[C@H](N2C(=O)c3ccc(N4CC(C(=O)N5CCC(N6CCN(c7ccc(Nc8ncnc9c8ncn9[C@H]8C[C@@H](NC(=O)Cc9ccccc9)C8)cc7)CC6)CC5)C4)cc3C2=O)C(=O)N1 [Compound 342, N-((1s,3s)-3-(6-((4-(4-(1-(1-(2-(2,6-dioxopiperidin-3-yl)-1,3-dioxoisoindolin-5-yl)azetidin-3-carbonyl)piperidin-4-yl)piperazin-1-yl)phenyl)amino)-9H-purin-9-yl)cyclobutyl)-2-phenylacetamide] | 0/0/0% | 0/0/0% | 0/0/0% | 0/0/0% | 0/0/0% | 0/0/0%
O=C1CC[C@H](N2C(=O)c3ccc(N4CCC(C(=O)N5CCC(N6CCN(c7ccc(Nc8ncnc9c8ncn9[C@H]8C[C@@H](NC(=O)Cc9ccccc9)C8)cc7)CC6)CC5)CC4)cc3C2=O)C(=O)N1 [Compound 343, N-((1s,3s)-3-(6-((4-(4-(1-(1-(2-(2,6-dioxopiperidin-3-yl)-1,3-dioxoisoindolin-5-yl)piperidin-4-carbonyl)piperidin-4-yl)piperazin-1-yl)phenyl)amino)-9H-purin-9-yl)cyclobutyl)-2-phenylacetamide] | 30% | 30% | 40% | 10% | 0% | 0%
O=C1CCC(n2nnc3ccc(N4CC(N5CCN(c6ccc(Nc7ncnc8c7ncn8[C@H]7C[C@@H](NC(=O)Cc8ccccc8)C7)cc6)CC5)C4)cc3c2=O)C(=O)N1 (stereo partly drawn) [Compound 346, N-((1s,3s)-3-(6-((4-(4-(1-(3-(2,6-dioxopiperidin-3-yl)-4-oxo-3,4-dihydrobenzo[d][1,2,3]triazin-6-yl)azetidin-3-yl)piperazin-1-yl)phenyl)amino)-9H-purin-9-yl)cyclobutyl)-2-phenylacetamide] | 10% | 0% | 0% | 30/30/30% | 30/30/30% | 30/30/30%
O=C1CC[C@H](N2C(=O)c3ccc(N4CCN(CCCC5CCN(c6ccc(Nc7ncnc8c7ncn8C7CC(NC(=O)Cc8ccccc8)C7)cc6)CC5)CC4)cc3C2=O)C(=O)N1 (stereo partly drawn) [Compound 347, N-((1s,3s)-3-(6-((4-(4-(3-(4-(2-(2,6-dioxopiperidin-3-yl)-1,3-dioxoisoindolin-5-yl)piperazin-1-yl)propyl)piperidin-1-yl)phenyl)amino)-9H-purin-9-yl)cyclobutyl)-2-phenylacetamide] | 10% | 0% | 0% | 30% | 0% | 0%
